Laboratory results taken from the supplement of paper PMC10307832.

Key:
Assay in all cases: relative viability (nuclei count vs DMSO), 5 days (fraction); higher = more cells survive
ALW-II-49-7 + Luminespib = compound: Cc1ccc(C(=O)Nc2cccc(C(F)(F)F)c2)cc1Nc1cncc(C(N)=O)c1 [ALW-II-49-7] + CCNC(=O)c1noc(-c2cc(C(C)C)c(O)cc2O)c1-c1ccc(CN2CCOCC2)cc1 [Luminespib] (partner 0.01 µM)
Method in brief: (§1)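 One day after seeding in 1536-well plates, lung cancer cell lines were dosed by pin tool. Dosing was either single-drug or a fixed anchor-drug dose plus five library-drug doses (not always all listed) in √10 steps. After 5 days, nuclei were stained in one fix-and-stain step and counted on 4× images, and relative viability is the nuclei count of treated wells over that of vehicle wells, given as the median of duplicate plates.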

Dasatinib + Phenformin = compound: Cc1nc(Nc2ncc(C(=O)Nc3c(C)cccc3Cl)s2)cc(N2CCN(CCO)CC2)n1 [Dasatinib] + N=C(N)NC(=N)NCCc1ccccc1 [Phenformin] (partner 250 µM)
Method in brief: as §1

ALW-II-49-7 + Decitabine = compound: Cc1ccc(C(=O)Nc2cccc(C(F)(F)F)c2)cc1Nc1cncc(C(N)=O)c1 [ALW-II-49-7] + Nc1ncn([C@H]2C[C@H](O)[C@@H](CO)O2)c(=O)n1 [Decitabine] (partner 2 µM)
Method in brief: as §1

XMD13-2 + Foretinib = compound: C1CC1C(=O)NC2=NNC3=C2C=CC(=C3)C4=CC(=CC=C4)C(=O)NC5CC5 [XMD13-2] + COc1cc2c(Oc3ccc(NC(=O)C4(C(=O)Nc5ccc(F)cc5)CC4)cc3F)ccnc2cc1OCCCN1CCOCC1 [Foretinib] (partner 0.25 µM)
Method in brief: as §1

Cell Line: UMC-11
- relative viability (ALW-II-49-7 + Luminespib; first compound 0.08 µM): 1.19
- relative viability (ALW-II-49-7 + Luminespib; first compound 0.253 µM): 0.939
- relative viability (ALW-II-49-7 + Luminespib; first compound 0.8 µM): 1.14
- relative viability (ALW-II-49-7 + Luminespib; first compound 2.53 µM): 0.983
- relative viability (ALW-II-49-7 + Luminespib; first compound 8 µM): 1
- relative viability (Dasatinib + Phenformin; first compound 0.005 µM): 0.307
- relative viability (Dasatinib + Phenformin; first compound 0.01581 µM): 0.332
- relative viability (Dasatinib + Phenformin; first compound 0.05 µM): 0.265
- relative viability (Dasatinib + Phenformin; first compound 0.1581 µM): 0.234
- relative viability (Dasatinib + Phenformin; first compound 0.5 µM): 0.171
- relative viability (ALW-II-49-7 + Decitabine; first compound 0.08 µM): 0.642
- relative viability (ALW-II-49-7 + Decitabine; first compound 0.253 µM): 0.663
- relative viability (ALW-II-49-7 + Decitabine; first compound 0.8 µM): 0.58
- relative viability (ALW-II-49-7 + Decitabine; first compound 2.53 µM): 0.419
- relative viability (ALW-II-49-7 + Decitabine; first compound 8 µM): 0.552
- relative viability (XMD13-2 + Foretinib; first compound 0.05 µM): 1.23
- relative viability (XMD13-2 + Foretinib; first compound 0.1581 µM): 1.09
- relative viability (XMD13-2 + Foretinib; first compound 0.5 µM): 1
- relative viability (XMD13-2 + Foretinib; first compound 1.581 µM): 1.08
- relative viability (XMD13-2 + Foretinib; first compound 5 µM): 1.06
